#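 Briefly, cells in 96-well plates were exposed to five compound concentrations for 48 h, and endpoints were estimated by linear interpolation. TGI: concentration producing complete growth inhibition.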
# Legend:
# Assay in all cases: inhibition of tumour cell growth, NCI panel, 48 h
# 786-0 renal = test system: 786-0 renal
# A498 renal = test system: A498 renal
# ACHN renal = test system: ACHN renal
# CAKI-1 renal = test system: CAKI-1 renal
# CCRF-CEM leukemia = test system: CCRF-CEM leukemia
# COLO 205 colon = test system: COLO 205 colon
# DLD-1 colon = test system: DLD-1 colon
# DMS 273 small cell lung = test system: DMS 273 small cell lung
# HCC-2998 colon = test system: HCC-2998 colon
# HCT-116 colon = test system: HCT-116 colon
# HL-60(TB) leukemia = test system: HL-60(TB) leukemia
# HOP-62 NSCLC = test system: HOP-62 NSCLC
# HOP-92 NSCLC = test system: HOP-92 NSCLC
# IGROV1 ovarian = test system: IGROV1 ovarian
# K-562 leukemia = test system: K-562 leukemia
# LXFL 529 NSCLC = test system: LXFL 529 NSCLC
# M14 melanoma = test system: M14 melanoma
# M19-MEL melanoma = test system: M19-MEL melanoma
# MALME-3M melanoma = test system: MALME-3M melanoma
# MOLT-4 leukemia = test system: MOLT-4 leukemia
# NCI-H226 lung = test system: NCI-H226 lung
# NCI-H23 lung = test system: NCI-H23 lung
# NCI-H460 lung = test system: NCI-H460 lung
# OVCAR-4 ovarian = test system: OVCAR-4 ovarian
# RPMI-8226 leukemia = test system: RPMI-8226 leukemia
# RXF-631 renal = test system: RXF-631 renal
# SF-268 CNS = test system: SF-268 CNS
# SF-539 CNS = test system: SF-539 CNS
# SK-MEL-2 melanoma = test system: SK-MEL-2 melanoma
# SK-MEL-28 melanoma = test system: SK-MEL-28 melanoma
# SK-OV-3 ovarian = test system: SK-OV-3 ovarian
# SN12C renal = test system: SN12C renal
# SNB-75 CNS = test system: SNB-75 CNS
# SNB-78 CNS = test system: SNB-78 CNS
# SR leukemia = test system: SR leukemia
# UACC-62 melanoma = test system: UACC-62 melanoma
# DMS 114 small cell lung = test system: DMS 114 small cell lung
# EKVX NSCLC = test system: EKVX NSCLC
# HCT-15 colon = test system: HCT-15 colon
# HT29 colon = test system: HT29 colon
# KM12 colon = test system: KM12 colon
# KM20L2 colon = test system: KM20L2 colon
# LOX IMVI melanoma = test system: LOX IMVI melanoma
# NCI-H522 lung = test system: NCI-H522 lung
# OVCAR-3 ovarian = test system: OVCAR-3 ovarian
# OVCAR-5 ovarian = test system: OVCAR-5 ovarian
# OVCAR-8 ovarian = test system: OVCAR-8 ovarian
# RXF 393 renal = test system: RXF 393 renal
# SF-295 CNS = test system: SF-295 CNS
# SK-MEL-5 melanoma = test system: SK-MEL-5 melanoma
# SNB-19 CNS = test system: SNB-19 CNS
# SW-620 colon = test system: SW-620 colon
# TK-10 renal = test system: TK-10 renal
# U251 CNS = test system: U251 CNS
# UACC-257 melanoma = test system: UACC-257 melanoma
# UO-31 renal = test system: UO-31 renal
# XF 498 CNS = test system: XF 498 CNS
compound,measurement,setting,value
COc1cc([C@@H]2Oc3cc4oc(-c5ccccc5)cc(=O)c4c(O)c3O[C@H]2OC)ccc1O,TGI,786-0 renal,20.8 µM
same,TGI,A498 renal,32.3 µM
same,TGI,ACHN renal,23.1 µM
same,TGI,CAKI-1 renal,34.4 µM
same,TGI,CCRF-CEM leukemia,27.8 µM
same,TGI,COLO 205 colon,50.2 µM
same,TGI,DLD-1 colon,21.2 µM
same,TGI,DMS 273 small cell lung,14.4 µM
same,TGI,HCC-2998 colon,26.5 µM
same,TGI,HCT-116 colon,19.6 µM
same,TGI,HL-60(TB) leukemia,8.08 µM
same,TGI,HOP-62 NSCLC,26.9 µM
same,TGI,HOP-92 NSCLC,39.5 µM
same,TGI,IGROV1 ovarian,53.1 µM
same,TGI,K-562 leukemia,25.9 µM
same,TGI,LXFL 529 NSCLC,25.2 µM
same,TGI,M14 melanoma,24.7 µM
same,TGI,M19-MEL melanoma,24 µM
same,TGI,MALME-3M melanoma,30.6 µM
same,TGI,MOLT-4 leukemia,21.3 µM
same,TGI,NCI-H226 lung,38.4 µM
same,TGI,NCI-H23 lung,32.4 µM
same,TGI,NCI-H460 lung,15.2 µM
same,TGI,OVCAR-4 ovarian,29.1 µM
same,TGI,RPMI-8226 leukemia,25.9 µM
same,TGI,RXF-631 renal,32.6 µM
same,TGI,SF-268 CNS,19.7 µM
same,TGI,SF-539 CNS,30.6 µM
same,TGI,SK-MEL-2 melanoma,31.2 µM
same,TGI,SK-MEL-28 melanoma,16.8 µM
same,TGI,SK-OV-3 ovarian,34.1 µM
same,TGI,SN12C renal,25.5 µM
same,TGI,SNB-75 CNS,25.1 µM
same,TGI,SNB-78 CNS,38.2 µM
same,TGI,SR leukemia,18.5 µM
same,TGI,UACC-62 melanoma,37.7 µM
O=C(O)/C=C/c1ccncc1,TGI,786-0 renal,> 100 µM
same,TGI,A498 renal,> 100 µM
same,TGI,ACHN renal,> 100 µM
same,TGI,CAKI-1 renal,> 100 µM
same,TGI,CCRF-CEM leukemia,> 100 µM
same,TGI,COLO 205 colon,> 100 µM
same,TGI,DLD-1 colon,> 100 µM
same,TGI,DMS 114 small cell lung,> 100 µM
same,TGI,DMS 273 small cell lung,> 100 µM
same,TGI,EKVX NSCLC,> 100 µM
same,TGI,HCC-2998 colon,> 100 µM
same,TGI,HCT-116 colon,> 100 µM
same,TGI,HCT-15 colon,> 100 µM
same,TGI,HL-60(TB) leukemia,> 100 µM
same,TGI,HOP-62 NSCLC,0.746 µM
same,TGI,HOP-92 NSCLC,> 100 µM
same,TGI,HT29 colon,> 100 µM
same,TGI,IGROV1 ovarian,> 100 µM
same,TGI,K-562 leukemia,> 100 µM
same,TGI,KM12 colon,> 100 µM
same,TGI,KM20L2 colon,> 100 µM
same,TGI,LOX IMVI melanoma,> 100 µM
same,TGI,LXFL 529 NSCLC,> 100 µM
same,TGI,M14 melanoma,> 100 µM
same,TGI,M19-MEL melanoma,> 100 µM
same,TGI,MALME-3M melanoma,> 100 µM
same,TGI,MOLT-4 leukemia,> 100 µM
same,TGI,NCI-H226 lung,> 100 µM
same,TGI,NCI-H23 lung,> 100 µM
same,TGI,NCI-H460 lung,> 100 µM
same,TGI,NCI-H522 lung,> 100 µM
same,TGI,OVCAR-3 ovarian,> 100 µM
same,TGI,OVCAR-4 ovarian,> 100 µM
same,TGI,OVCAR-5 ovarian,> 100 µM
same,TGI,OVCAR-8 ovarian,> 100 µM
same,TGI,RPMI-8226 leukemia,> 100 µM
same,TGI,RXF 393 renal,> 100 µM
same,TGI,SF-268 CNS,> 100 µM
same,TGI,SF-295 CNS,> 100 µM
same,TGI,SF-539 CNS,> 100 µM
same,TGI,SK-MEL-2 melanoma,> 100 µM
same,TGI,SK-MEL-28 melanoma,> 100 µM
same,TGI,SK-MEL-5 melanoma,> 100 µM
same,TGI,SK-OV-3 ovarian,> 100 µM
same,TGI,SN12C renal,> 100 µM
same,TGI,SNB-19 CNS,> 100 µM
same,TGI,SNB-75 CNS,> 100 µM
same,TGI,SNB-78 CNS,> 100 µM
same,TGI,SR leukemia,> 100 µM
same,TGI,SW-620 colon,> 100 µM
same,TGI,TK-10 renal,> 100 µM
same,TGI,U251 CNS,14 µM
same,TGI,UACC-257 melanoma,> 100 µM
same,TGI,UACC-62 melanoma,> 100 µM
same,TGI,UO-31 renal,> 100 µM
same,TGI,XF 498 CNS,> 100 µM

# Reference: PubChem BioAssay (NCI)
